Source: US8058258B2, “Methods for cancer therapy and stem cell modulation” (Agency for Science, Technology and Research, priority 2006, dated 2011)

What was measured:
[1] = tested on: RNA polymerase II binding to PRC2 target gene promoters; assay: ChIP of RNA Pol II binding to PRC2 target gene promoters; assay type: cell-based, human; conditions: MCF-7 cells, 5 μM, 48 hours
Procedure: ChIP assays were performed as described previously. […] MCF-7 cell were seeded into 6-well plates at 30% confluence and treated with or without 3-deazaneplanocin (5 μM) for 48 hours. Cells were washed once in 1× phosphate-buffered saline (PBS) and then treated with 1% formaldehyde in PBS at 37° C. for […] followed by the addition of glycine to a final concentration of 0.125 M for 5 mM. Cells were then scraped on ice and centrifuged at 1500 rpm for 5 mM at 4° C. After washing with PBS cell pellets were resuspended in 1 mL of cold lysis buffer (10 mM HEPES at pH 7.5, 1 mM EDTA at pH 8.0, 400 mM NaCl, 10% glycerol, 0.5% NP-40, 0.5 mM phenylmethylsulfonyl fluoride, and protease inhibitors [1 mM benzamidine, 3 mg/mL leupeptin, 0.1 mg/mL bacitracin, 1 mg/mL macroglobulin]) followed by centrifugation at 11,500 rpm in a microfuge for 5 min at 4° C. to remove protein not cross-linked to chromatin. The resulting pellets were then resuspended again in 1 mL of cold lysis buffer and sonicated with a Heat Systems-Ultrasonics, Inc. W-220 sonicator at 20% output for a total of 2 mM (pulsed: 30 sec on/30 sec off). The resulting solution was cleared by centrifugation at maximum speed in a microfuge for 10 mM at 4° C. At this point 5% of the solution was taken and stored at −20° C. for the input chromatin sample. […]

MCF-7 cells = assay: Cell death / apoptosis by PI staining and flow cytometry; assay type: cell-based, human; conditions: 5 μM; for cell death: PI staining and flow cytometry, cell line not named in the sentence (FIG. 3A)
Procedure: FIG. 3A depicts the detection of cell death of a variety of cancer cells upon exposure to 3-deazaneplanocin (DZNep) compared to untreated controls cells (DMSO=dimethyl sulfoxide). Breast cancer MCF-7 and MB-468 cells, colorectal HCT116, RKO and SW480 cells were treated with 5 μm 3-deazaneplanocin for 48 and 72 h, and cell death was detected by means of propodium iodide (PI) staining and flow cytometry analysis. Shown is the average of three independent experiments.
Cell lines used in these examples were purchased from the American Type Culture Collection (Manassas, Va.). Cells were maintained in DMEM supplemented with 10% fetal bovine serum with glutamine, penicillin, and streptomycin. For drug treatment, cells were seeded the day before the drug treatment. Cells were treated with 5 μM 3-Deazaneplanocin A or 2 μM 5-aza-2′-deoxycytidine (5-AzaC; Sigma) for 72 hours and trichostatin A (TSA; Sigma) at 100 nM for 24 hours. For co-treatment of cells with 5-AzaC and TSA, 5-Aza was added for 48 hours and followed by TSA for 24 hours.
(§1) Cells were trypsinised and washed with PBS and fixed in 70% ethanol and processed for propidium iodide staining and FACS analysis. For the caspase 3 activity assay and mitochondrial membrane potential detection, cells were stained with anti-active caspase 3 and JC-1, respectively, according to the manufacturer's instructions (BD Bioscience).
It was observed that 3-deazaneplanocin at 5 μM could induce 25% cell death at 48 hours and 45% of cell death at 72 hours, as determined by propodium iodide (PI) staining and flow cytometry analysis (FIG. 3A).
To determine whether 3-deazaneplanocin preferentially induces apoptosis in cancer cells, the apoptosis induction between MCF-7 cells and the non-cancerous breast epithelial MCF10A cells was compared for various periods of time. […] In addition, normal primary colon epithelial CC33D cells, like MCF10A cells, were also resistant to 3-deazaneplanocin treatment compared to colorectal cancer HCT116 cell, as evaluated by microscopy examination (FIGS. 3G & 3H).

[2] = tested on: caspase 3 in HCT116 cells; assay: Caspase 3 activity by flow cytometry; assay type: cell-based
Excerpt: as §1, with “FIG. 3D depicts the detection of activation the protease caspase 3 potential in HCT116 cells by 3-deazaneplanocin (DZNep, right hand side), which occurs during apoptosis. Cells” for “Cells”

With `Nc1nccc2c1ncn2C1C=C(CO)C(O)C1O` (centres unmarked) [3-deazaneplanocin, 5-(4-amino-1H-imidazo[4,5-c]pyridin-1-yl)-3-(hydroxymethyl)-3-cyclopentene-1,2-diol] the “binding of RNA Pol II to PRC2 target gene promoters (ChIP)” value [1] was “increased”, the cell death (MCF-7 cells; 48 hours) was 25% and the cell death (MCF-7 cells; 72 hours) was 45%. For the same compound, the “apoptosis induction over various periods of time” value (MCF-7 cells; MCF-7 cells, FACS) was “progressive and marked apoptosis” and the “activation of the protease caspase 3” value [2] was “activation”.
